{
  "source": "patent US8912184B1",
  "about": "“Therapeutic and diagnostic methods” (Alzheimer's Institute of America, Inc., priority 2010, dated 2014)",
  "key": {"HCT116 cells [1]": {"tested_on": "HCT116 cells", "assay": "72 Hour HCT116 Cytotoxicity Assay (CellTiter-Glo)", "format": "cell-based", "conditions": "Homo sapiens, HCT-116, 72 h, HCT116 cells, 72 h, read-out: IC50 cytotoxicity", "protocol": "HCT116 cells were seeded in 96 well plates (Greiner Bio-One, Monroe, N.C.) and allowed to settle overnight. Test compound dissolved in dimethyl sulfoxide (DMSO) was added and drug incubation proceeded for 72 hours. […] After 72 hour, 50 μL of CellTiter-Glo Luminescent Cell Viability Assay reagent (Promega Corporation, Madison, Wis.) was added to cells in 200 μL of cellular media. After a proscribed incubation period, luminescence was measured using a TopCount NXT plate reader (PerkinElmer, Waltham, Mass.)."}, "HCT116 cells [2]": {"tested_on": "HCT116 cells", "assay": "NAD measured in cellular lysates (NAD depletion) of HCT116 cells", "format": "cell-based, human", "conditions": "for IC50: Homo sapiens", "experimental": "NAD in cells was measured by modification of existing protocols (Lee, H. I., et al. Exp. Mol. Med. 40, 246-253 (2008)). MCF-10A cells stably transduced with the PIK3CA(H1047R) oncogene were seeded in 96 well plates at very high density (100% confluence) and allowed to settle overnight. Test compound dissolved in DMSO was added and drug incubation proceeded for 20-24 hours. Cells were washed with PBS and harvested by incubation in 25 μL 0.5 M perchloric acid (HClO4) followed by vigorous shaking at 4° C. for 15 minutes. Acidic cell lysates were neutralized by adding 8 μL of 2 M KOH/0.2 M K2HPO4. The entire lysate volume was transferred to a centrifuge plate and spun at 3000 rpm in a table top centrifuge (4° C.) for 5 minutes to clear the precipitate. Lysate was assayed for both NAD and ATP. For NAD measurement, 10 μL lysate from the centrifuged plate was added to 90 μL of reaction solution in Costar 96 half-well plates (Corning, Corning, N.Y.). […]. Reactions were allowed to proceed for 1 hour at room temperature, after which time fluorescence was read on a Gemini plate reader as described above.\nUsing such methods NAD Depeletion was followed in lysates of Naprt-proficient HCT116 cells, exposed to Exemplary Compound A, as shown in FIG. 4 (a). […].\nKinetics of NAD and ATP depletion in Naprt1-proficient HCT116 cells induced by Exemplary Compound A was studied using the assays described above. HCT116 cells were treated with 8.5 nM Exemplary Compound A and cellular NAD and ATP were measured at various times.\nPotency of Exemplary Compound A as a function of time of exposure was also studied using the assays described above. Cells were treated with a range of Exemplary Compound A concentration for varying times of exposure, and IC50 values for NAD and ATP depletion were determined. […]."}, "[3]": {"assay": "Maximum tolerated dose in mice", "conditions": "nu/nu, mouse, in vivo, oral"}, "[4]": {"format": "in vivo", "conditions": "mice, single oral dose 300 mg/kg, by 5 days"}, "HCT116 xenograft tumors": {"tested_on": "HCT116 xenograft tumors", "assay": "NAD levels in tumor lysates of HCT116 xenograft mice", "format": "in vivo", "conditions": "single oral dose on day 0, after two days", "experimental": "Exemplary Compound A was tested for its ability to deplete NAD levels and promote tumor regression in an HCT116 (i.e., a Naprt-proficient cancer) murine xenograft model. Three million HCT116 human colon carcinoma cells were injected subcutaneously into nu/nu mice to form tumors. Dosing was started ten days later when median tumor volume was >100 mm^3.\nExemplary Compound A was administered orally once on day 0 (arrow) to HCT116 tumor-bearing xenograft mice and NAD levels were determined for tumor lysates every other day for 8 days."}, "HCT116 cells [5]": {"tested_on": "HCT116 cells", "assay": "ATP measured in cellular lysates (ATP depletion) of HCT116 cells", "format": "cell-based", "conditions": "Homo sapiens, read-out: potency (IC50) for ATP depletion", "experimental": "NAD in cells was measured by modification of existing protocols (Lee, H. I., et al. Exp. Mol. Med. 40, 246-253 (2008)). MCF-10A cells stably transduced with the PIK3CA(H1047R) oncogene were seeded in 96 well plates at very high density (100% confluence) and allowed to settle overnight. Test compound dissolved in DMSO was added and drug incubation proceeded for 20-24 hours. Cells were washed with PBS and harvested by incubation in 25 μL 0.5 M perchloric acid (HClO4) followed by vigorous shaking at 4° C. for 15 minutes. Acidic cell lysates were neutralized by adding 8 μL of 2 M KOH/0.2 M K2HPO4. The entire lysate volume was transferred to a centrifuge plate and spun at 3000 rpm in a table top centrifuge (4° C.) for 5 minutes to clear the precipitate. […] Reactions were allowed to proceed for 1 hour at room temperature, after which time fluorescence was read on a Gemini plate reader as described above.\nFor ATP measurement, 5 μL of cleared lysate was added to 195 μL PBS. 50 μL CellTiter-Glo reagent (Promega Corporation, Madison, Wis.) was added and ATP measured as described in the cytotoxicity assay methods.\nKinetics of NAD and ATP depletion in Naprt1-proficient HCT116 cells induced by Exemplary Compound A was studied using the assays described above. HCT116 cells were treated with 8.5 nM Exemplary Compound A and cellular NAD and ATP were measured at various times. […]"}},
  "data": [
    {"smiles": "O=C(NCc1cccnc1)Nc1ccc(COc2ccccc2-c2ccccc2)cc1", "note": "[Exemplary Compound A, 1-{4-[(biphenyl-2-yloxy)methyl]phenyl}-3-(pyridin-3-ylmethyl)urea]", "values": [
      {"measurement": "IC50", "setting": "HCT116 cells [1]; absence of 10 μM NA", "result": 0.26, "unit": "nM"},
      {"measurement": "IC50", "setting": "HCT116 cells [1]; presence of 10 μM NA", "result": "> 10000", "unit": "nM"},
      {"measurement": "NAD depletion reached before loss of ATP initiated", "setting": "HCT116 cells [2]; HCT116 cells, 8.5 nM", "result": "> 90", "unit": "%"},
      {"measurement": "IC50", "setting": "HCT116 cells [2]; HCT-116, 0.5 h, exposure 30 min, read-out: potency (IC50) for NAD depletion", "result": 23, "unit": "nM"},
      {"measurement": "IC50", "setting": "HCT116 cells [2]; HCT-116, 24 h, HCT116 cells, 24 h, absence of 10 μM NA, read-out: IC50 NAD depletion", "result": 0.26, "unit": "nM"},
      {"measurement": "IC50", "setting": "HCT116 cells [2]; HCT-116, 24 h, HCT116 cells, 24 h, presence of 10 μM NA, read-out: IC50 NAD depletion", "result": "> 1000", "unit": "nM"},
      {"measurement": "IC50", "setting": "HCT116 cells [2]; HCT-116, 48 h, after 48 h exposure, read-out: potency (IC50) for NAD depletion", "result": "~0.6", "unit": "nM"},
      {"measurement": "MTD", "setting": "[3]", "result": 75, "unit": "mg/kg"},
      {"measurement": "lethality", "setting": "[4]", "result": "completely lethal"},
      {"measurement": "depletion of NAD in tumor lysates", "setting": "HCT116 xenograft tumors", "result": 94, "unit": "%"},
      {"measurement": "IC50", "setting": "HCT116 cells [5]; HCT-116, 0.5 h, exposure 30 min", "result": 33, "unit": "nM"},
      {"measurement": "IC50", "setting": "HCT116 cells [5]; HCT-116, after 48 h exposure", "result": "~0.6", "unit": "nM"}
    ]}
  ]
}
